Patent publication US11400136B2, “Methods and compositions for treating a microbial infection” (priority 2017, dated 2022)
“Also recorded” adds a separate entry of the source. Where two headings read alike, the source gives them in different places.

Columns and labels:
S. pyogenes M1 [1] = assay type: cell-based, mouse
S. pyogenes M1 [2] = assay type: in vivo, mouse
S. pyogenes M1 [3] = assay type: cell-based, Streptococcus pyogenes; conditions: 1 h
S. pyogenes M1 [4] = assay type: in vivo, mouse; remark: listed apart in the source
Klebsiella pneumoniae = test: K. pneumoniae lung infection; assay type: in vivo, mouse; conditions: RTX vs vehicle
skin punch biopsies = test: CGRP release assay from skin explants; assay type: in vivo, mouse; conditions: RTX-treated vs vehicle; 7 h
Procedure: CGRP release assay from skin explants. Skin punch biopsies (12 mm) were collected from the uninfected or infected flank skin samples of euthanized mice, and rapidly transferred to 24-well plates containing 1 mL of DMEM. Explants were incubated at 32° C. with gentle shaking (150 rpm) for 30 min.

[5] = tested on: TRPV1-positive nociceptors; test: Ablation of TRPV1+ nociceptors, quantification of DRG/vagal ganglia neurons; conditions: mouse, in vivo
[6] = Heat sensitivity (hot plate and tail-flick assays); assay type: in vivo, mouse; conditions: RTX vs vehicle
Procedure: Behavior tests. For behavioral assays, observers were blinded to treatment group and genotype. To measure heat sensitivity, mice were placed on a hot plate set at 52° C. (IITC Life Science). Latency to hindpaw lifting/licking/flinching was recorded, and stopped at a maximum of 60 seconds. For tail-flick assay, mice were kept vertically in a relaxed fashion with their tail immersed in a temperature-controlled water bath maintained at 52° C. The latency to a tail flick was recorded, with maximum of 60 seconds.

[7] = tested on: Pseudomonas aeruginosa strain PA01V; test: P. aeruginosa lung infection; assay type: in vivo, mouse; conditions: RTX vs vehicle
neutrophils = test: Pulmonary intravital microscopy of neutrophils; assay type: in vivo, mouse; conditions: RTX
Procedure: Pulmonary intravital microscopy. […]. To visualize neutrophils and endothelium, 3.5 μg Alexa Fluor 594 conjugated anti-Ly6G antibody (clone 1A8, BioLegend) and 5 μg Alexa Fluor 647 conjugated anti-CD31 antibody (clone MEC13.3, BioLegend) were injected intravenously. Mice were placed on a heating pad maintained at 37° C. and connected to mechanical ventilation (Harvard Apparatus) after a tracheostomy is performed. Mice were kept in a right lateral decubitus position and their left lung was exposed after a thoracotomy and rib resection. A portion of the lung was immobilized via a gentle vacuum chamber with a glass slide fitted on top. A resonant-scanner confocal microscope (Leica SP8) equipped with a white light laser and three HyD spectral detectors and a 25×/0.9 water objective lens were used for intravital microscopy. Images were acquired every 10 s for a total of 10 min, three to five fields of view were observed. All videos and images were processed and analyzed using Leica software and Volocity software. For neutrophil behavior analysis, tethering was defined as rapid movement with blood flow and stop for less than 30 s. Adhesion was defined as neutrophils that remained stationary for 30 s or longer. Crawling was defined as polarized cells that maintained continuous contact with the endothelium while changing physical location for at least 30 s. Random neutrophils were tracked manually in 10-min videos by using Volocity software.

S. aureus USA300 = test: S. aureus (MRSA) lung infection / lethal pneumonia; assay type: in vivo, mouse
[8] = tested on: Streptococcus pneumoniae strain WU-2; test: S. pneumoniae lung infection; assay type: in vivo, mouse; conditions: RTX vs vehicle; P=0.13
[9] = assay type: in vivo, mouse; conditions: RTX-treated vs vehicle; steady state
Procedure: Vital sign measurements. Heart rate, oxygen saturation and perfusion were measured under isoflurane anesthesia by Pulse Oximetry using the Kent Scientific PhysioSuite (Kent Scientific Corporation). For accuracy, measurements were performed three independent times on different days for the same mice, and values represent the average of three measurements. Pulse Oximetry could not be used on MRSA infected mice because they could not survive isoflurane anesthesia, and thus the measurements were only performed at steady state. Respiratory rates were determined by manually recording number of breaths per minute and averaged over three measurements. Core body temperature was measured using a rectal thermal probe (Bioseb).

In the case of `NCCCC[C@H](NC(=O)[C@@H](Cc1cc(Br)c(O)c(Br)c1)NC(=O)N1CCC(N2Cc3ccccc3NC2=O)CC1)C(=O)N1CCN(c2ccncc2)CC1` [BIBN4096], the “neutrophil killing of S. pyogenes suppressed by DRG neurons” value (S. pyogenes M1 [1]) was “enhances neutrophil killing of bacteria; also recorded: prevented the suppressive effects”, the abscess formation (S. pyogenes M1 [2]; mouse, in vivo, 30 mg/kg) was “significantly decreases abscess formation; also recorded: reduced abscesses” and the dermonecrotic lesion size (S. pyogenes M1 [2]; mouse, in vivo, ip, 30 mg/kg) was “significantly smaller lesion formation; also recorded: smaller dermonecrotic lesions”. For the same compound, the “neutrophil (CD11b+Ly6G+) recruitment to infected area” value (S. pyogenes M1 [2]; treated 2 h after infection, 1 day after injection) was “increased the recruitment of neutrophils”, the “bacterial load recovery, flank skin and spleen” value (S. pyogenes M1 [2]; treated 2 h after infection, 9 days after injection of bacteria) was “decreases flank skin and spleen bacterial burdens; also recorded: increased bacterial clearance in the skin” and the “direct effects on S. pyogenes growth or viability” value (S. pyogenes M1 [3]) was “did not have direct effects”.
In the case of `CC(C)Cc1ccc(C(C)C(=O)O)cc1` (centres unmarked) [Ibuprofen], the heat hyperalgesia (S. pyogenes M1 [4]; ibuprofen 50 mg/kg) was “had no effect” and the mechanical hyperalgesia (S. pyogenes M1 [4]; ibuprofen 50 mg/kg) was “had no effect”.
In the case of `C=C(C)[C@]12C[C@@H](C)[C@@]34O[C@](Cc5ccccc5)(O[C@@H]1[C@@H]3C=C(COC(=O)Cc1ccc(O)c(OC)c1)C[C@]1(O)C(=O)C(C)=C[C@@H]41)O2` [RTX, Resiniferatoxin], the survival (Klebsiella pneumoniae) was “did not impact death”, the “CGRP release in infected tissues” value (skin punch biopsies) was “lower CGRP release in infected tissues” and the “TRPV1+ and CGRP+ neurons in DRG (and vagal/nodose ganglia)” value [5] was “significant loss of CGRP+ nociceptive neurons; also recorded: led to loss of TRPV1+ and CGRP+ neurons; also recorded: loss of TRPV1+ and CGRP+ neurons in DRG and VG”. The dermonecrosis (S. pyogenes M1 [2]; RTX 30, 70, 100 μg/kg s.c., infection 4 weeks later) was “significantly less dermonecrosis”, the “S. pyogenes in lesions, quantitative cultures” value (S. pyogenes M1 [2]; RTX-treated vs vehicle) was “log-fold reductions of S. pyogenes” and the body weight regain (S. pyogenes M1 [2]; RTX-treated vs vehicle) was “regained body weight faster”. For the same compound, the skin abscess size (S. pyogenes M1 [2]; RTX-treated vs vehicle) was “resolved faster”, the “monocytes, other myeloid cells, CD11b-CD45+ leukocytes (FACS)” value (S. pyogenes M1 [2]; RTX-treated vs vehicle, 1 day) was “not detected” and the skin histopathology (S. pyogenes M1 [2]; RTX-treated, day 3) was “containment of the bacterial infection within a circumscribed abscess containing polymorphonuclear leukocytes”. For the same compound, the “S. pyogenes cultured from spleens” value (S. pyogenes M1 [2]; RTX-treated, day 9) was “did not yield detectable bacteria”, the “latency to noxious heat” value [6] was “increased latency to noxious heat” and the survival [7] was “did not impact death”. For the same compound, the neutrophil crawling distances (neutrophils) was “significantly increased crawling distances”, the neutrophil vascular crawling (neutrophils) was “a significant proportion of neutrophils demonstrated vascular crawling” and the “neutrophils recruited to pulmonary capillaries” value (neutrophils; 4 h post-infection GFP-S. aureus) was “significantly more neutrophils”. The heat hyperalgesia (S. pyogenes M1 [4]; RTX-treated) was “abrogated”, the mechanical hyperalgesia (S. pyogenes M1 [4]; RTX-treated) was “abrogated” and the spontaneous pain behaviors (S. pyogenes M1 [4]; RTX-treated) was “abrogated”. The “mice succumbed to / died from infection” value (S. aureus USA300; RTX-treated mice given GR1 or control IgG) was 0%, the “lung bacterial burdens / clearance” value (S. aureus USA300; RTX-treated vs vehicle, 12 h) was “significantly improved; also recorded: reduced lung bacterial burdens” and the core body temperature (S. aureus USA300; RTX-treated vs vehicle, lethal MRSA) was “improved maintenance of core-body temperature”. The survival (S. aureus USA300; RTX-treated vs vehicle, lethal MRSA intra-tracheal) was “significantly improved survival; also recorded: the majority of RTX-treated mice survived”, the “BALF total protein, TNF-α, IL-6 and CXCL-1 induction” value (S. aureus USA300; RTX, 6 h) was “faster kinetics in the induction” and the “CD11b+Ly6G+ lung neutrophil recruitment” value (S. aureus USA300; RTX, 6 h and 12 h post-infection) was “striking increase”. The “gram-positive bacterial colonies in lung (Brown and Brenn)” value (S. aureus USA300; RTX, 12 h and 24 h) was “few bacterial colonies”, the “lung cellular immune influx (H&E)” value (S. aureus USA300; RTX, 12 h and 24 h post-infection) was “increased cellular immune influx” and the “BALF TNF-α, IL-6 and CXCL-1 levels” value (S. aureus USA300; RTX, 12 h post-infection) was “markedly reduced”. The “CGRP levels in BALF” value (S. aureus USA300; RTX, 12 h post-infection) was “significantly reduced”, the “bacterial load recovery, sub-lethal dose” value (S. aureus USA300; RTX, S. aureus 2-4×10^7 CFU) was “enhanced protection” and the survival [8] was “modest but non-significant protective effect”. The “oxygen saturation, heart rate, perfusion, respiratory rates” value [9] was “did not differ”.
For “CGRP8-37 (VTHRLAGLLSRSGGVVKNNFVPTNVGSKAF; Calcitonin gene-related peptide 1; UniProt P06881 90-119, looked up, fragment)”, the “neutrophil killing of S. pyogenes suppressed by DRG neurons” value (S. pyogenes M1 [1]) was “enhances neutrophil killing of bacteria; also recorded: prevented the suppressive effects”, the “direct effects on S. pyogenes growth or viability” value (S. pyogenes M1 [3]) was “did not have direct effects” and the survival (S. aureus USA300; CGRP8-37 800 ng i.p. at -24, -2, 12, 24, 36, 48 h) was “improved survival”. For the same compound, the “core body temperature maintenance” value (S. aureus USA300; CGRP8-37 800 ng i.p. before and after infection) was “improved”, the core body temperature (S. aureus USA300; CGRP8-37 7.5 μg i.p. after infection) was “significantly improved” and the survival (S. aureus USA300; CGRP8-37 7.5 μg i.p. at 4, 16, 24 h after infection) was “significantly improved survival”. For the same compound, the core-body temperature (S. aureus USA300; CGRP8-37 i.p. 12 hours prior and 12 hours after infection) was “maintenance of core-body temperature” and the survival (S. aureus USA300; CGRP8-37 i.p. 12 hours prior and 12 hours after infection, 10^7 CFU) was “significantly improved survival”.
